Consider 14 molecules from patent US20080038276A1, “INHIBITORS OF PLASMA KALLIKREIN” (Activesite Pharmaceuticals, Inc., priority 2006, published 2008).

The target in test [1] is T1, Human plasma kallikrein (PK) (Homo sapiens, UniProt P03952).
T1 construct: purchased Haemtech Technologies (Essex Junction, Vt.)
Kind of test: Inhibition of human plasma kallikrein amidolytic activity (H-D-Pro-Phe-Arg-pNA cleavage, A405). In kind it is biochemical. Here is the method: Human plasma kallikrein (PK) was obtained from Haemtech Technologies (Essex Junction, Vt.). The enzymatic activity of PK was assayed using the synthetic peptide substrate H-D-Pro-Phe-Arg-pNA (Bachem, Inc., Switzerland) with the cleavage of the substrate by the enzyme resulting in an increase in A405, measured using a Molecular Devices Vmax Kinetic Microplate Reader. The uninhibited (control) activity of PK was determined by adding 190 μl of PK solution (1 nM in 0.05 M HEPES, pH 7.5, 0.01% Triton X-100) to 10 μl of H-D-Pro-Phe-Arg-pNA (2 mM in DMSO) in individual microtiter plate wells, mixed immediately by shaking, and the rate of increase in A405 determined over 120-180 sec. In parallel, compounds of the present invention were mixed in separate wells with the synthetic substrate to attain final concentrations of between 0.01-10 μM in the final 200 μl reaction mixture, and the reaction initiated by the addition of 190 μl of the PK solution.
(§1) The highest concentration of either compound tested was 10 μM.

For the next test, the target named is T2, FXIIa (Homo sapiens, UniProt P00748).
T2 sequence (P00748 373-615 limits assumed): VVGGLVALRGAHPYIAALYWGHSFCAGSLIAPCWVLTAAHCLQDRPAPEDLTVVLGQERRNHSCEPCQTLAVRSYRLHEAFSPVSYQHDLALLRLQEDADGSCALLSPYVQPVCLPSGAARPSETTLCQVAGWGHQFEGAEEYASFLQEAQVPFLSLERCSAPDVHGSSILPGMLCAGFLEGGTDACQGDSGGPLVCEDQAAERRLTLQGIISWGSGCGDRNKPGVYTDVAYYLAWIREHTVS
Briefly: Specificity profile: amidolytic activity with synthetic substrate. To be noted: highest concentration tested 10 μM. In kind it is biochemical. The method, then: as §1

The target of another test is FXIa (Homo sapiens, UniProt P03951). The test is described as above. In kind it is biochemical. To be noted: highest concentration tested 10 μM. The method, then:
as §1

The next test deals with FXa (Homo sapiens, UniProt P00742). The description is as above. In kind it is biochemical. The note with it: highest concentration tested 10 μM. Here is the method: as §1
FXa, sequence (P00742 235-488 limits assumed): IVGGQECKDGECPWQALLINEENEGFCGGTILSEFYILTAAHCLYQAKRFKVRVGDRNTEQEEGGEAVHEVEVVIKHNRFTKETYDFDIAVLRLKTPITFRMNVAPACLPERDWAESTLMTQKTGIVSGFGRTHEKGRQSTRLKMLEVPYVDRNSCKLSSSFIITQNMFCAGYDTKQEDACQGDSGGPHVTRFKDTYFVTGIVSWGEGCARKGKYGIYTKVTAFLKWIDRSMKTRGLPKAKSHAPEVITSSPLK
FXa, sequence (P00742 41-179 partner limits assumed): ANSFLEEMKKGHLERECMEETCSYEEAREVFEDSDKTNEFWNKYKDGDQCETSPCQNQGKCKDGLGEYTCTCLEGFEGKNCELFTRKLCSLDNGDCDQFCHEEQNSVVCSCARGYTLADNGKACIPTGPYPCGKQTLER
Another test concerns the target T3, Plasmin (Homo sapiens, UniProt P00747).
T3 construct: agents that lead to the generation of active plasmin from plasminogen
Described as above. In kind it is biochemical. The note with it: highest concentration tested 10 μM. The method, then:
as §1

For another test, the target named is Thrombin (Homo sapiens, UniProt P00734). The description is as above. In kind it is biochemical. To be noted: highest concentration tested 10 μM. Here is the method:
as §1

In test [2] the test system is plasmin-activated coagulation in plasma. Kind of test: Plasmin-activated coagulation of plasma (plasmin + 6.25% Actin FS), time to coagulation. More on the design: species or system human. The note with it: for prolongs time to coagulation: normal plasma; for relative coagulation time: 50% plasma, 6.25% Actin FS, control 1.00. The method, then: In the clotting paradigm utilized in Example 3, plasma is mixed 1:1 with commercially formulated Actin FS. Thus, 50% (v/v) Actin FS is the maximum amount of activator that can be added while maintaining the amount of plasma constant at 50% of the incubation mixture. Since the clotting time in normal plasma is dependent on the amount of Actin FS present in the incubation mixture, these conditions would by definition lead to the shortest time to coagulation mediated by the intrinsic pathway in this paradigm. Lowering the amount of contact activator leads to a decrease in the amount of PK activated, thus reducing the amount of thrombin generated and slowing the time to coagulation (data not shown). Therefore, in order to determine whether addition of exogenous plasmin (mimicking a fibrinolytic setting) can shorten time to coagulation, the amount of Actin FS reagent added to the plasma (kept constant at 50% of the final incubation mixture) was lowered so as to attain 6.25% (final v/v).
This provides direct evidence that plasmin can have a thrombogenic effect when added to plasma in the presence of a small amount of contact activator.
The role for PK was established by evaluating deficiencies in PK, as well as by using two specific inhibitors of the enzymes. In order to determine whether blocking PK via a specific monoclonal antibody (MAb) would also be effective in inhibiting coagulation in either of the two paradigms described here, and thus provide additional validation for the invention, MAb 13G11, which has been previously characterized as being specific for PK (Veloso et al, (1987) Blood, 70, 1053-1062), was tested in each of the coagulation paradigms described in Examples 2 and 3. MAb 13G11 (obtained from GeneTex, San Antonio, Tex.) was added at a final concentration of 0.036 mg/ml in the 50% plasma—50% activator mix in each paradigm. This calculates to an approximately 2-fold molar excess over the amount of PK that would be present in the plasma—activator mixture, based on the literature reference of Veloso et al, (1987), Blood, 70, 1053-1062. Control samples were treated with 0.036 mg/ml of an isotype-matched control IgG1 (also obtained from GeneTex). When plasma was activated using 50% Actin FS (FIG. 5), MAb 13G11 prolonged time to coagulation by 100% (45% of the maximal effect obtained with PK-deficient plasma), and, when plasma was activated using 200 nM plasmin+6.25% Actin FS (FIG. 6), prolonged time to coagulation by 32% (40% of the maximal effect obtained with PK-deficient plasma).

A further test has as its system patients with HAE. The note with it: in vivo; cited from earlier work.
In the next test the test system is rat models of arthritis. To be noted: in vivo; cited from earlier work.
Test [3] deals with LPS or bacterial induced sepsis in animals. The note with it: in vivo; cited from earlier work.
Where [4] appears, read: apparent inhibition constant, 1 nM PK, pH 7.5, read-out: PK Kiapp.
[5] abbreviates: purified human PK, highest concentration tested 10 μM, read-out: Ki PK.
The mark [6] stands for this setting: Table 4 inhibition constants, read-out: Ki.

Read-outs that look alike come from different tables or passages of the source. Square brackets hold non-standard residues; d marks the D form. * marks the point of attachment. CH2Cl = ClC*

T1 sequence (P03952 391-638 limits assumed): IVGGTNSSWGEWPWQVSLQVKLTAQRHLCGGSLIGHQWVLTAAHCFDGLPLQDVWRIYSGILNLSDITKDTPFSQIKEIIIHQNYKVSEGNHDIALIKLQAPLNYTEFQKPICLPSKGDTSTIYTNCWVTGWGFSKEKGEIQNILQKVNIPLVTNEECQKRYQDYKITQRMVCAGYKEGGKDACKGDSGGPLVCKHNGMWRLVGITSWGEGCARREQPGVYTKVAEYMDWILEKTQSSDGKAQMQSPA
T1 sequence (P03952 20-390 partner limits assumed): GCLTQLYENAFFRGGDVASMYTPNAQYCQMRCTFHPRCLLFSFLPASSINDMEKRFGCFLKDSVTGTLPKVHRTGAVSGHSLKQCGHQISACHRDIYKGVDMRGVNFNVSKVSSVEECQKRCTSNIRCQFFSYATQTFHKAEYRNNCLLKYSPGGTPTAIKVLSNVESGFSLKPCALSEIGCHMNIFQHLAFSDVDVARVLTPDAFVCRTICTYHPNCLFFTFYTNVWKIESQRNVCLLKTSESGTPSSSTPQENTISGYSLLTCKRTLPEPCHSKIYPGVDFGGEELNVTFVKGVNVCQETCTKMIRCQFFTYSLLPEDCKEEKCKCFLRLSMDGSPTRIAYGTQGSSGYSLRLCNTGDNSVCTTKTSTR
FXIa, sequence (P03951 388-625 limits assumed): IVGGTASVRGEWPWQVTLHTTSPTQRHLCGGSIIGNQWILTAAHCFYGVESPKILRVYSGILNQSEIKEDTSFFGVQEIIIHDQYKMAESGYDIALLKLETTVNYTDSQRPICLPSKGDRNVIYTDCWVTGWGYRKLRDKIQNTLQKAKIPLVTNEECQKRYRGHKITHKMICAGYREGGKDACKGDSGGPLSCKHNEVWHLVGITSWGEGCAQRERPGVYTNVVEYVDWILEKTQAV
FXIa, sequence (P03951 19-387 partner limits assumed): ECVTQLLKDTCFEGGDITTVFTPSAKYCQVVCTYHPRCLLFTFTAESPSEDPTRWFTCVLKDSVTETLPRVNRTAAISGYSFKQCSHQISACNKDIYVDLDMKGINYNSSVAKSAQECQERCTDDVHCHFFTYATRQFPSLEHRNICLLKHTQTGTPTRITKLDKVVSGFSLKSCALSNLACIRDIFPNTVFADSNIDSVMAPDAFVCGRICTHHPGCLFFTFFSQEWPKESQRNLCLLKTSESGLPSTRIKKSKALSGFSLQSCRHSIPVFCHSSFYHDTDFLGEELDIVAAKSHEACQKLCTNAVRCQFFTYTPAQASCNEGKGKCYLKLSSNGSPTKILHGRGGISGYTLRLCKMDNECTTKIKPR

In the case of `N=C(N)c1ccc(CNC(=O)c2cnn(Cc3ccccc3)c2)cc1` [ASP-440, 1-Benzyl-1H-pyrazole-4-carboxylic acid 4-carbamimidoyl-benzylamide], the Ki in [1] (setting [4]) is 0.31 µM; in test [1] (setting [5]), 0.09 µM; at FXIIa, more than 10 µM; at FXIa, more than 10 µM; at FXa, more than 10 µM; at Plasmin, more than 10 µM. The same molecule gave a Ki on Thrombin of more than 10 µM. Also, the “prolongs time to coagulation” value in test [2] (200 nM plasmin, compound 10 μM) was 36%.

As to `Cc1cc(C(=O)NCc2ccc(C(=N)N)cc2)c(C)n1Cc1ccncc1` [ASP-465, 2,5-Dimethyl-1-pyridin-4-ylmethyl-1H-pyrrole-3-carboxylic acid 4-carbamimidoyl-benzylamide], the Ki is 0.08 µM in test [1] (setting [4]); 0.03 µM in test [1] (setting [5]); more than 10 µM on FXIIa; more than 10 µM at FXIa; more than 10 µM on FXa; more than 10 µM at Plasmin. In addition, the Ki on Thrombin is more than 10 µM. Besides, the “potency (Ki) towards PK relative to ASP-440” value in [1] (ratio of Ki values) was determined as 3 fold. Besides, the “block of the plasmin-induced shortening of time to coagulation attributable to PK” value in [2] (10 μM) was “almost completely blocks”. Also, the “prolongs time to coagulation” value in test [2] (200 nM plasmin, compound 3.3 or 10 μM) is reported as 36-75%. Moreover, the “potency towards inhibiting plasmin-activated coagulation relative to ASP-440” value in test [2] (same prolongation at 3.3 μM as ASP-440 at 10 μM) is recorded as 3 fold.

Consider `Cc1nn(Cc2ccccc2Cl)c(C)c1C(=O)NCc1ccc(C(=N)N)cc1` [ASP-578, 1-(2-Chloro-benzyl)-3,5-dimethyl-1H-pyrazole-4-carboxylic acid 4-carbamimidoyl-benzylamide], for which the Ki in test [1] (setting [4]) came out at 1.64 µM.

Consider `Cc1nn(Cc2c(Cl)cccc2Cl)c(Cl)c1C(=O)NCc1ccc(C(=N)N)cc1` [ASP-579, 5-Chloro-1-(2,6-dichloro-benzyl)-3-methyl-1H-pyrazole-4-carboxylic acid 4-carbamimidoyl-benzylamide], for which, in test [1] (setting [4]), the Ki stood at 1.19 µM.

In the case of `Cc1cc(C(=O)NCc2ccc(C(=N)N)cc2)c(C)n1Cc1ccccc1` [ASP-580, 1-Benzyl-2,5-dimethyl-1H-pyrrole-3-carboxylic acid 4-carbamimidoyl-benzylamide], the Ki in test [1] (setting [4]) was 0.03 µM.

For the molecule `Cc1cc(C(=O)NCc2ccc(C(=N)N)cc2)c(C)n1CC(F)(F)F` [ASP-581, 2,5-Dimethyl-1-(2,2,2-trifluoro-ethyl)-1H-pyrrole-3-carboxylic acid 4-carbamimidoyl-benzylamide], the Ki in [1] (setting [4]) is 0.41 µM.

Regarding `N=C(N)c1ccc(CNC(=O)c2cnn(Cc3ccccc3Cl)c2)cc1` [ASP-582, 1-(2-Chloro-benzyl)-1H-pyrazole-4-carboxylic acid 4-carbamimidoyl-benzylamide], in test [1] (setting [4]), the Ki turned out to be 0.47 µM.

For the molecule `Cc1nn(Cc2ccc(F)cc2)c(Cl)c1C(=O)NCc1ccc(C(=N)N)cc1` [ASP-583, 5-Chloro-1-(4-fluoro-benzyl)-3-methyl-1H-pyrazole-4-carboxylic acid 4-carbamimidoyl-benzylamide], the Ki in test [1] (setting [4]) is 2.38 µM.

On to `NC(N)=NCCC[C@@H](N)C(=O)N[C@@H](CCCN=C(N)N)C(=O)N1CCC[C@H]1C(=O)N1C[C@H](O)C[C@H]1C(=O)NCC(=O)N[C@@H](Cc1cccs1)C(=O)N[C@@H](CO)C(=O)N1Cc2ccccc2C[C@@H]1C(=O)N1[C@H](C(=O)N[C@@H](CCCN=C(N)N)C(=O)O)C[C@@H]2CCCC[C@@H]21` [Icatibant], for which the “treating HAE” value in the test on patients with HAE is recorded as “effective”.

With `Cl.NCC1CCC(C(=O)N[C@@H](Cc2ccccc2)C(=O)Nc2ccc(CC(=O)O)cc2)CC1` (stereo partly drawn) [PKSI-527], the joint swelling result with rat models of arthritis is given as “reduce”.

As for `N=C(N)c1ccc(CNC(=O)c2cn(Cc3ccccc3)c3ccccc23)cc1` [compound 1], in [1] (setting [6]), the Ki amounted to 0.08 µM.

With `N=C(N)c1ccc(CNC(=O)c2cnn(-c3ccccc3)c2)cc1` [compound 4], the Ki in [1] (setting [6]) is 1 µM.

Consider “H-[dP]-Phe-Arg-CH2Cl [reference compound]”, for which, in test [3], the “vascular permeability in multiple organs and lesions” value was “reduce”.

B1: plasmin: exogenous plasmin added to plasma, mimicking a fibrinolytic setting (protein, UniProt P00747 20-580; P00747 581-810, looked up)
Plasmin heavy chain A: EPLDDYVNTQGASLFSVTKKQLGAGSIEECAAKCEEDEEFTCRAFQYHSKEQQCVIMAENRKSSIIIRMRDVVLFEKKVYLSECKTGNGKNYRGTMSKTKNGITCQKWSSTSPHRPRFSPATHPSEGLEENYCRNPDNDPQGPWCYTTDPEKRYDYCDILECEEECMHCSGENYDGKISKTMSGLECQAWDSQSPHAHGYIPSKFPNKNLKKNYCRNPDRELRPWCFTTDPNKRWELCDIPRCTTPPPSSGPTYQCLKGTGENYRGNVAVTVSGHTCQHWSAQTPHTHNRTPENFPCKNLDENYCRNPDGKRAPWCHTTNSQVRWEYCKIPSCDSSPVSTEQLAPTAPPELTPVVQDCYHGDGQSYRGTSSTTTTGKKCQSWSSMTPHRHQKTPENYPNAGLTMNYCRNPDADKGPWCFTTDPSVRWEYCNLKKCSGTEASVVAPPPVVLLPDVETPSEEDCMFGNGKGYRGKRATTVTGTPCQDWAAQEPHRHSIFTPETNPRAGLEKNYCRNPDGDVGGPWCYTTNPRKLYDYCDVPQCAAPSFDCGKPQVEPKKCPGR
Plasmin light chain B: VVGGCVAHPHSWPWQVSLRTRFGMHFCGGTLISPEWVLTAAHCLEKSPRPSSYKVILGAHQEVNLEPHVQEIEVSRLFLEPTRKDIALLKLSSPAVITDKVIPACLPSPNYVVADRTECFITGWGETQGTFGAGLLKEAQLPVIENKVCNRYEFLNGRVQSTELCAGHLAGGTDSCQGDSGGPLVCFEKDKYILQGVTSWGLGCARPNKPGVYVRVSRFVTWIEGVMRNN
modifications: Plasmin
notes: exogenous plasmin added to plasma, mimicking a fibrinolytic setting
B1: the relative coagulation time in test [2] (100 nM plasmin) worked out at 0.74; in [2] (200 nM plasmin) it was 0.65. For the same molecule, the “relative time to coagulation” value in [2] (200 nM plasmin, absence of any Actin FS) was 4.0.
